Laboratory results from US20240124422A1, “MUTANT PI3K-ALPHA INHIBITORS AND THEIR USE AS PHARMACEUTICALS” (Prelude Therapeutics Incorporated, priority 2022, published 2024).
Like-named read-outs stand apart in the source and are kept apart here.

System: phosphorylation of AKT on Ser473 as a readout of the PI3K pathway in T-47D (heterozygous PIK3CA H1047R) cells
Assay: PI3K pathway activation assay, pAKT Ser473 HTRF, T-47D cells
Assay type: cell-based
Details: two hours of treatment
Method: The inhibitory activity of compounds was evaluated by measuring phosphorylation of AKT on Ser473 as a readout of the PI3K pathway using HTRF (CisBio catalog number: 64AKSPE). These studies were conducted in the T-47D (heterozygous PIK3CA H1047R) and SKBR3 (PIK3CA WT) cell lines. Cells were maintained in a 37° C. incubator at 5% CO2 in the following media: T-47D: RPMI 1640, ATCC© Modification (Gibco, A10491-01) supplemented with 10% v/v FBS (Gibco, 26140-079), 1% penicillin streptomycin (Gibco, 15140-122), and 7.4 ug/mL insulin (MilliporeSigma, I9278); SKBR3: McCoy's 5a (Modified) Medium (Gibco, 16600-082) supplemented with 10% v/v FBS (Gibco, 26140-079). Cells were seeded in 384-well plates at a density of 4,000 cells/well. Compounds dissolved in DMSO were added using a digital dispense (D300E, Tecan) 10-point serial dilution. After two hours of treatment, cells were lysed for thirty minutes and then incubated with detection reagents per HTRF kit material and manufacturer's instructions. Fluorescence signal was measured with a multimode plate reader (Envision 2105, Perkin Elmer). Fluorescent signal was normalized to background and DMSO controls to obtain percent inhibition/activity for each compound.

Row | Compound | IC50 (Homo sapiens, T47D, 2 h) | IC50 (read-out: T47D pAKT IC50)
1 | CC(Nc1ccccc1C(=O)O)c1cc(C(F)(F)F)cc2c(=O)n(C)c(N3Cc4ccccc4C3)nc12 (stereo not drawn) [Example 15, 2-((1-(2-(isoindolin-2-yl)-3-methyl-4-oxo-6-(trifluoromethyl)-3,4-dihydroquinazolin-8-yl)ethyl)amino)benzoic acid] | < 500 nM | 
2 | Cc1cc(C(C)Nc2ccccc2C(=O)O)c2nc(N3CC4CC4C3)n(CC(F)(F)F)c(=O)c2c1 (stereo not drawn) [Example 103, 2-((1-(2-(3-Azabicyclo[3.1.0]hexan-3-yl)-6-methyl-4-oxo-3-(2,2,2-trifluoroethyl)-3,4-dihydroquinazolin-8-yl)ethyl)amino)benzoic acid] | 500 to 10000 nM | 
3 | Cc1cc(C(Nc2ccccc2C(=O)O)C(F)(F)F)c2nc(N3CC4CC4C3)n(C)c(=O)c2c1 (stereo not drawn) [Example 47, 2-[[1-[2-(3-azabicyclo[3.1.0]hexan-3-yl)-3,6-dimethyl-4-oxoquinazolin-8-yl]-2,2,2-trifluoroethyl]amino]benzoic acid] | 500 to 10000 nM | 
4 | CC(=O)N1C[C@H]2CN(c3nc4c(C(C)Nc5ccccc5C(=O)O)cc(C)cc4c(=O)n3C)C[C@@H]2C1 (stereo partly drawn) [Example 66, 2-((1-(2-((3aR,6aR)-5-Acetylhexahydropyrrolo[3,4-c]pyrrol-2(1H)-yl)-3,6-dimethyl-4-oxo-3,4-dihydroquinazolin-8-yl)ethyl)amino)benzoic acid] | 500 to 10000 nM | 
5 | COCCN(C)C(=O)[C@H]1[C@@H]2CN(c3nc4c(C(C)Nc5ccccc5C(=O)O)cc(C)cc4c(=O)n3C)C[C@@H]21 (stereo partly drawn) [Example 87, 2-((1-(2-((1R,5S,6R)-6-((2-Methoxyethyl)(methyl)carbamoyl)-3-azabicyclo[3.1.0]hexan-3-yl)-3,6-dimethyl-4-oxo-3,4-dihydroquinazolin-8-yl)ethyl)amino)benzoic acid] |  | 500 to 10000 nM
6 | Cc1cc(C(C)Nc2ccccc2C(=O)O)c2nc(N3CCC4(CC3)CC(NC(=O)OC(C)(C)C)C4)n(C)c(=O)c2c1 (stereo not drawn) [Example 107, 2-[1-[3,6-dimethyl-2-[2-[(2-methylpropan-2-yl)oxycarbonylamino]-7-azaspiro[3.5]nonan-7-yl]-4-oxoquinazolin-8-yl]ethylamino]benzoic acid] | 500 to 10000 nM | 
7 | Cc1cc(C(C)Nc2c(F)cccc2C(=O)O)c2nc(N3Cc4ccccc4C3)n(C)c(=O)c2c1 (stereo not drawn) [Example 45, 3-fluoro-2-((1-(2-(isoindolin-2-yl)-3,6-dimethyl-4-oxo-3,4-dihydroquinazolin-8-yl)ethyl)amino)benzoic acid] | 500 to 10000 nM | 
8 | CON(C)C(=O)C1[C@H]2CN(c3nc4c(C(C)Nc5ccccc5C(=O)O)cc(C)cc4c(=O)n3C)C[C@@H]12 (stereo partly drawn) [Example 83, 2-((1-(2-((1R,5S,6R)-6-(Methoxy(methyl)carbamoyl)-3-azabicyclo[3.1.0]hexan-3-yl)-3,6-dimethyl-4-oxo-3,4-dihydroquinazolin-8-yl)ethyl)amino)benzoic acid] |  | < 500 nM
9 | Cc1cc(C(C)Nc2ccccc2C(=O)O)c2nc(N3CC4CC(C4)C3)n(C)c(=O)c2c1 (stereo not drawn) [Example 116, 2-((1-(2-(3-Azabicyclo[3.1.1]heptan-3-yl)-3,6-dimethyl-4-oxo-3,4-dihydroquinazolin-8-yl)ethyl)amino)benzoic acid] | < 500 nM | 
10 | Cc1cc(C(C)Nc2ccccc2C(=O)O)c2nc(N3Cc4ccccc4C3)n([C@H]3C[C@H](C#N)C3)c(=O)c2c1 (stereo partly drawn) [Example 75, 2-((1-(3-((1r,3r)-3-Cyanocyclobutyl)-2-(isoindolin-2-yl)-6-methyl-4-oxo-3,4-dihydroquinazolin-8-yl)ethyl)amino)benzoic acid] | 500 to 10000 nM | 
11 | Cc1cc(C(C)Nc2ccccc2C(=O)O)c2nc(N3CCC(c4ccccc4)C3)n(C)c(=O)c2c1 (single isomer, unassigned) [Example 52, 2-[1-[3,6-dimethyl-4-oxo-2-(3-phenylpyrrolidin-1-yl)quinazolin-8-yl]ethylamino]benzoic acid] | 500 to 10000 nM | 
12 | Cc1cc(C(C)Nc2ccccc2C(=O)O)c2nc(N3C[C@@H]4C(NC(=O)OCc5ccccc5)[C@@H]4C3)n(C)c(=O)c2c1 (stereo partly drawn) [Example 59, 2-((1-(2-((1R,5S,6s)-6-(((benzyloxy)carbonyl)amino)-3-azabicyclo[3.1.0]hexan-3-yl)-3,6-dimethyl-4-oxo-3,4-dihydroquinazolin-8-yl)ethyl)amino)benzoic acid] |  | 500 to 10000 nM
13 | Cc1cc(C(C)Nc2ccccc2C(=O)O)c2nc(N3CC4CC3CN4C(=O)OC(C)(C)C)n(C)c(=O)c2c1 (stereo not drawn) [Example 65, 2-((1-(2-(5-(tert-Butoxycarbonyl)-2,5-diazabicyclo[2.2.1]heptan-2-yl)-3,6-dimethyl-4-oxo-3,4-dihydroquinazolin-8-yl)ethyl)amino)benzoic acid] | 500 to 10000 nM | 
14 | Cc1cc(C(C)Nc2ccccc2C(=O)O)c2nc(N3CC4CCC3C4)n(C)c(=O)c2c1 (single isomer, unassigned) [Example 101, 2-((1-(2-(2-Azabicyclo[2.2.1]heptan-2-yl)-3,6-dimethyl-4-oxo-3,4-dihydro-quinazolin-8-yl)ethyl)amino)benzoic acid] |  | 500 to 10000 nM
15 | Cc1cc(C(C)Nc2ccccc2C(=O)O)c2nc(N3CCC(F)(F)CC3)n(C)c(=O)c2c1 (single isomer, unassigned) [Example 37, 2-((1-(2-(4,4-difluoropiperidin-1-yl)-3,6-dimethyl-4-oxo-3,4-dihydroquinazolin-8-yl)ethyl)amino)benzoic acid] | < 500 nM | 
16 | CNC(=O)C1[C@H]2CN(c3nc4c(C(C)Nc5ccccc5C(=O)O)cc(C)cc4c(=O)n3C)C[C@@H]12 (stereo partly drawn) [Example 89, 2-((1-(3,6-Dimethyl-2-((1R,5S,6R)-6-(methylcarbamoyl)-3-azabicyclo[3.1.0]hexan-3-yl)-4-oxo-3,4-dihydroquinazolin-8-yl)ethyl)amino)benzoic acid] |  | 500 to 10000 nM
17 | CC(Nc1ccccc1C(=O)O)c1cc(C2CC2)cc2c(=O)n(C)c(N3CC4CC4C3)nc12 (stereo not drawn) [Example 76, 2-((1-(2-(3-Azabicyclo[3.1.0]hexan-3-yl)-6-cyclopropyl-3-methyl-4-oxo-3,4-dihydroquinazolin-8-yl)ethyl)amino)benzoic acid] | 500 to 10000 nM | 
18 | Cc1cc(C(C)Nc2ccccc2C(=O)O)c2nc(N3Cc4ccccc4C3)n(-c3cccnc3)c(=O)c2c1 (stereo not drawn) [Example 18, 2-((1-(2-(isoindolin-2-yl)-6-methyl-4-oxo-3-(pyridin-3-yl)-3,4-dihydroquinazolin-8-yl)ethyl)amino)benzoic acid] | 500 to 10000 nM | 
19 | Cc1cc(C(C)Sc2ccccc2C(=O)O)c2nc(N3Cc4ccccc4C3)n(C)c(=O)c2c1 (stereo not drawn) [Example 13, 2-((1-(2-(isoindolin-2-yl)-3,6-dimethyl-4-oxo-3,4-dihydroquinazolin-8-yl)ethyl)thio)benzoic acid] | 500 to 10000 nM | 
20 | Cc1cc(C(C)Nc2ccccc2C(=O)O)c2nc(N3CCC(O)CC3)n(C)c(=O)c2c1 (stereo not drawn) [Example 57, 2-((1-(2-(4-hydroxypiperidin-1-yl)-3,6-dimethyl-4-oxo-3,4-dihydroquinazolin-8-yl)ethyl)amino)benzoic acid] | 500 to 10000 nM | 
21 | Cc1cc(C(C)Nc2ccc(Cl)cc2C(=O)O)c2nc(N3Cc4ccccc4C3)n(C)c(=O)c2c1 (stereo not drawn) [Example 33, 5-chloro-2-((1-(2-(isoindolin-2-yl)-3,6-dimethyl-4-oxo-3,4-dihydroquinazolin-8-yl)ethyl)amino)benzoic acid] | 500 to 10000 nM | 
22 | Cc1cc(C(C)Nc2cc(Cl)nnc2C(=O)O)c2nc(N3CC4CC4C3)n(C)c(=O)c2c1 (stereo not drawn) [Example 126, 4-((1-(2-(3-Azabicyclo[3.1.0]hexan-3-yl)-3,6-dimethyl-4-oxo-3,4-dihydroquinazolin-8-yl)ethyl)amino)-6-chloropyridazine-3-carboxylic acid] | 500 to 10000 nM | 
23 | Cc1cc(C(C)Nc2ccccc2C(=O)O)c2nc(N3CC4CCC4C3)n(C)c(=O)c2c1 (stereo not drawn) [Example 112, 2-[1-[2-(3-azabicyclo[3.2.0]heptan-3-yl)-3,6-dimethyl-4-oxoquinazolin-8-yl]ethylamino]benzoic acid] | < 500 nM | 
24 | Cc1cc(C(C)Nc2ccccc2C(=O)O)c2nc(N3C[C@@H]4C(NC(=O)OC5CC5)[C@@H]4C3)n(C)c(=O)c2c1 (stereo partly drawn) [Example 63, 2-((1-(2-((1R,5S,6s)-6-((cyclopropoxycarbonyl)amino)-3-azabicyclo[3.1.0]hexan-3-yl)-3,6-dimethyl-4-oxo-3,4-dihydroquinazolin-8-yl)ethyl)amino)benzoic acid] |  | 500 to 10000 nM
25 | Cc1cc(C(C)Nc2cccc(F)c2C(=O)O)c2nc(N3CC4CC4C3)n(C)c(=O)c2c1 (stereo not drawn) [Example 121, 2-[1-[2-(3-Azabicyclo[3.1.0]hexan-3-yl)-3,6-dimethyl-4-oxoquinazolin-8-yl]ethylamino]-6-fluorobenzoic acid] | < 500 nM | 
26 | Cc1cc(C(C)Nc2ccccc2C(=O)O)c2nc(N3CC4CC4C3)n(C)c(=O)c2c1C#N (stereo not drawn) [Example 14, 2-((1-(2-(3-azabicyclo[3.1.0]hexan-3-yl)-5-cyano-3,6-dimethyl-4-oxo-3,4-dihydroquinazolin-8-yl)ethyl)amino)benzoic acid] | 500 to 10000 nM | 
27 | Cc1cc(C(C)Nc2ccccc2C(=O)O)c2nc(N3CC4(CCC4(F)F)C3)n(C)c(=O)c2c1 (stereo not drawn) [Example 106, 2-[1-[2-(7,7-difluoro-2-azaspiro[3.3]heptan-2-yl)-3,6-dimethyl-4-oxoquinazolin-8-yl]ethylamino]benzoic acid] | < 500 nM | 
